The subject of series [1] is N9. Kind of series: Antineuroinflammatory activity in mouse N9 cells assessed as inhibition of LPS-induced nitric oxide production after 24 hrs by Griess assay. It is filed as functional, cell-based.
For series [2], the system named is N9. The series can be described thus: Cytotoxicity against LPS-induced mouse N9 cells assessed as decrease in cell viability at 1 to 100 ug/ml after 24 hrs by MTT assay. As to conditions: n9, 24 h. It is filed as cell-based.

17 compounds from ChEMBL document CHEMBL4000231, “Natural potential neuroinflammatory inhibitors from Alhagi sparsifolia Shap” (Bioorg Med Chem Lett, 2017) can be followed below.

Consider `O=c1c(O)c(-c2ccc(O)c(O)c2)oc2cc(O)cc(O)c12` [QUERCETIN], for which the inhibition entry with N9 [1] was “Dose-dependent effect”. Also, the Activity entry in the series on N9 [2] is “Non-Toxic”.
In the case of `O=C(N[C@@H](Cc1ccccc1)C(=O)N[C@H](CO)Cc1ccccc1)c1ccccc1`, the inhibition result in the series with N9 [1] was “Dose-dependent effect”. For the same compound, the Activity result in the series with N9 [2] was “Non-Toxic”.
As for `O=c1c(O[C@@H]2O[C@H](CO)[C@@H](O)[C@H](O)[C@H]2O)c(-c2ccc(O)c(O)c2)oc2cc(O)cc(O)c12` [ISOQUERCETIN], in the series with N9 [1], the inhibition result is “Dose-dependent effect”. The Activity result in the series with N9 [2] was “Non-Toxic”.
As for `COc1cc([C@@H]2OC[C@@H]3[C@H]2CO[C@H]3c2ccc(O)c(OC)c2)ccc1O` [(+)-PINORESINOL], the inhibition result with N9 [1] was “Dose-dependent effect”. Besides, in the series on N9 [2], the Activity result was “Non-Toxic”.
For the compound `CC1=CC(C)(C)[C@@H](C)C1`, in the series with N9 [1], the inhibition result was “Dose-dependent effect”. The Activity result in the series with N9 [2] was “Non-Toxic”.
Take `COc1cc([C@H]2OC[C@H]3[C@@H]2CO[C@@H]3c2cc(OC)c(O)c(OC)c2)cc(OC)c1O` [SYRINGARESINOL]: in the series on N9 [1], the inhibition entry was “Dose-dependent effect”. Moreover, the Activity result in the series on N9 [2] is “Non-Toxic”.
For `C=Cc1ccc(O)cc1OC`, in the series on N9 [1], the inhibition entry was “Dose-dependent effect”. Further, the Activity result in the series on N9 [2] is on record as “Non-Toxic”.
As to `COc1cc(-c2oc3cc(O)cc(O)c3c(=O)c2O)ccc1O` [ISORHAMNETIN], the inhibition entry in the series on N9 [1] was “Dose-dependent effect”. Also, the Activity result with N9 [2] was “Non-Toxic”.
In the case of `CC1=CC(=O)CC(C)(C)[C@@]1(O)/C=C/[C@@H](C)O` [BLUMENOL A], the inhibition entry in the series with N9 [1] was “Dose-dependent effect”. Further, the Activity entry in the series on N9 [2] is “Non-Toxic”.
In the case of `COc1ccc(CO)cc1O`, the inhibition result in the series on N9 [1] is “Dose-dependent effect”. In the series with N9 [2], the Activity result is “Non-Toxic”.
The like results for `COc1ccc(-c2coc3cc(O)ccc3c2=O)cc1O` [CALYCOSIN] were, in that order, “Dose-dependent effect” and “Non-Toxic”.
Regarding `C[C@@H]1O[C@@H](OC[C@H]2O[C@@H](Oc3c(-c4ccc(O)c(O)c4)oc4cc(O)cc(O)c4c3=O)[C@H](O[C@@H]3O[C@@H](C)[C@H](O)[C@@H](O)[C@H]3O)[C@@H](O)[C@@H]2O)[C@H](O)[C@H](O)[C@H]1O`, the inhibition entry with N9 [1] was “Dose-dependent effect”. For the same compound, the Activity result in the series on N9 [2] is listed as “Non-Toxic”.
With `CC1=CC(=O)CC(C)(C)[C@@]1(O)/C=C/C(C)=C\C(=O)O` [(+)-ABSCISIC ACID], in the series on N9 [1], the inhibition entry was “Dose-dependent effect”. Moreover, in the series on N9 [2], the Activity result is on record as “Non-Toxic”.
In the same order, the values of `COc1cc(OC)cc([C@@H]2OC[C@H]3[C@@H]2CO[C@H]3c2ccc(O)c(OC)c2)c1` are “Dose-dependent effect” and “Non-Toxic”.
In the case of `COc1ccc(-c2coc3c(OC)c(O)ccc3c2=O)cc1O`, the inhibition result in the series with N9 [1] was “Dose-dependent effect”. Also, the Activity entry in the series with N9 [2] was “Non-Toxic”.
Turning to `COc1cc([C@@H]2OC[C@@H]3[C@H]2CO[C@H]3c2cc(OC)c(O[C@@H]3O[C@H](CO)[C@@H](O)[C@H](O)[C@H]3O)c(OC)c2)cc(OC)c1O` [ACANTHOSIDE B], the inhibition entry in the series with N9 [1] was “Dose-dependent effect”. In addition, the Activity result with N9 [2] was “Non-Toxic”.
For the compound `COc1ccc(-c2coc3cc(O)c(OC)cc3c2=O)cc1O` [ODORATIN], in the series on N9 [1], the inhibition entry is “Dose-dependent effect”. Also, the Activity entry in the series on N9 [2] is listed as “Non-Toxic”.
